The record followed here is ChEMBL document CHEMBL1143925, “Deconstructing cytisine: The syntheses of (+/-)-cyfusine and (+/-)-cyclopropylcyfusine, fused ring analogs of cytisine” (Bioorg Med Chem Lett, 2008).

For test [1], the target named is Neuronal acetylcholine receptor subunit alpha-7 (Rattus norvegicus, UniProt Q05941). Put plainly: Displacement of [125I]alpha-bungarotoxin from rat alpha7 nAChR in GH4C1 cells. It is filed as cell-based, GH4-C1.
Test [2] has as its target Neuronal acetylcholine receptor; alpha3/beta4 (Homo sapiens, UniProt P30926+P32297). Put plainly: Displacement of [3H]epibatidine from human alpha3beta4 nAChR in IMR32 cells. It is filed as cell-based, IMR-32.
For test [3], the target named is Neuronal acetylcholine receptor; alpha4/beta2 (Rattus norvegicus, UniProt P09483+P12390). Kind of test: Displacement of [3H]nicotine from alpha4beta2 nAChR in Sprague-Dawley rat brain membrane. Format: cell membranes.
Neuronal acetylcholine receptor; alpha4/beta2, sequence (P09483 whole entry): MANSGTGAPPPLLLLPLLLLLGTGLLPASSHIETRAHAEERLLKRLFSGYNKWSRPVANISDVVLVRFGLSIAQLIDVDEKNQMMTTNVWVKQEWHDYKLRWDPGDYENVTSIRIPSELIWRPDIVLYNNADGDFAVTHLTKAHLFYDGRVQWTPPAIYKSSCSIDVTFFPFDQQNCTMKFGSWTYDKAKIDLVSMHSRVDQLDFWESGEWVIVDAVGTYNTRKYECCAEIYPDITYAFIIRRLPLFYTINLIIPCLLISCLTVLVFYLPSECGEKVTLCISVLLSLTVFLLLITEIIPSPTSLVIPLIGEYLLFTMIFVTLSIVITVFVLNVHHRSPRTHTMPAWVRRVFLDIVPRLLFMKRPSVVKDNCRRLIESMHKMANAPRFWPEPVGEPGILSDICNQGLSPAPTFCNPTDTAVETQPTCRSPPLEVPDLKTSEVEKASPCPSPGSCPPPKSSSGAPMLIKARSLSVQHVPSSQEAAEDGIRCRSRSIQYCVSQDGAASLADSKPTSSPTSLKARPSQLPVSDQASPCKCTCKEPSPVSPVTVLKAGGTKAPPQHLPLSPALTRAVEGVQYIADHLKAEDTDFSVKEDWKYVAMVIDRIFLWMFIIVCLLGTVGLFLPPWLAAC
Neuronal acetylcholine receptor; alpha4/beta2, sequence (P12390 whole entry): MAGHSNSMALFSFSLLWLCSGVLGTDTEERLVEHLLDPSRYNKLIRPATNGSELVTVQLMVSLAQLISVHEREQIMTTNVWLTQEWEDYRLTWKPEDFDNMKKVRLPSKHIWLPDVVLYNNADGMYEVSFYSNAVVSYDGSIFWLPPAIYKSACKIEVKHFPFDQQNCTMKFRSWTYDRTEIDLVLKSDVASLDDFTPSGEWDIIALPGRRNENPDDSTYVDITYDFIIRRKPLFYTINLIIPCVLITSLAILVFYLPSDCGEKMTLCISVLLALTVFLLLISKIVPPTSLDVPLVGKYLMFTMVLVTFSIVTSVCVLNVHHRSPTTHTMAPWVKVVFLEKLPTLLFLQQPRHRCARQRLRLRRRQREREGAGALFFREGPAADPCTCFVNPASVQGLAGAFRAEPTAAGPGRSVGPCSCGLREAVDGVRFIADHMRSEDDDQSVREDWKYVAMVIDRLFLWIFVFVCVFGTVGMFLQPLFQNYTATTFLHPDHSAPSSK

As usually defined, the Ki is a measure of affinity in units of concentration, obtained from inhibition or displacement. High values mean weaker binding, low ones tighter binding.

Neuronal acetylcholine receptor subunit alpha-7, sequence (Q05941 whole entry): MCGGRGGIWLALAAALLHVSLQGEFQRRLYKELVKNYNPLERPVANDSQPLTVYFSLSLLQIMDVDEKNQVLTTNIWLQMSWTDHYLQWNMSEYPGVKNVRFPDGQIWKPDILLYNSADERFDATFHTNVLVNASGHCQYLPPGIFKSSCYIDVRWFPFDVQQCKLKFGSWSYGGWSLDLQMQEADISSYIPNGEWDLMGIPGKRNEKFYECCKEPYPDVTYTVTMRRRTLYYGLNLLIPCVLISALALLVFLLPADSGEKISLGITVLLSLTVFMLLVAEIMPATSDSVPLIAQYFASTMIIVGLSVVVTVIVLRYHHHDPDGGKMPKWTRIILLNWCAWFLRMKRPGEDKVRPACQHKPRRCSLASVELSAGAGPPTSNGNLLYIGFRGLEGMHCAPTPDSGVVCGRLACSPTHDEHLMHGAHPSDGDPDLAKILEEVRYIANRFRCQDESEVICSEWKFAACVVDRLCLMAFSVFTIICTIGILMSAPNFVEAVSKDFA
Neuronal acetylcholine receptor; alpha3/beta4, sequence (P30926 whole entry): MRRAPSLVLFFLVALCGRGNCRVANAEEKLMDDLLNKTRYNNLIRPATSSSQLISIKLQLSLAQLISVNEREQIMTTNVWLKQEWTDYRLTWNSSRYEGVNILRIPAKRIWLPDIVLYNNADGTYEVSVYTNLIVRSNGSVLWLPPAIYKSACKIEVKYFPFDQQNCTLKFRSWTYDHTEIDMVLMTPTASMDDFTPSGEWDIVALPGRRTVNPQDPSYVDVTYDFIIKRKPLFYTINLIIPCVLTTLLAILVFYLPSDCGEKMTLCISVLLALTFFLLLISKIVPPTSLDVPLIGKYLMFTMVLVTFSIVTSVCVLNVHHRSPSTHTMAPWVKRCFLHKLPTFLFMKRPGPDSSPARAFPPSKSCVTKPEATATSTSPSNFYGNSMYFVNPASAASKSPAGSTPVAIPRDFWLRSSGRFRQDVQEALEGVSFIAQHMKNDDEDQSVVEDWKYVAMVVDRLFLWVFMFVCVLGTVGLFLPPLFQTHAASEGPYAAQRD
Neuronal acetylcholine receptor; alpha3/beta4, sequence (P32297 whole entry): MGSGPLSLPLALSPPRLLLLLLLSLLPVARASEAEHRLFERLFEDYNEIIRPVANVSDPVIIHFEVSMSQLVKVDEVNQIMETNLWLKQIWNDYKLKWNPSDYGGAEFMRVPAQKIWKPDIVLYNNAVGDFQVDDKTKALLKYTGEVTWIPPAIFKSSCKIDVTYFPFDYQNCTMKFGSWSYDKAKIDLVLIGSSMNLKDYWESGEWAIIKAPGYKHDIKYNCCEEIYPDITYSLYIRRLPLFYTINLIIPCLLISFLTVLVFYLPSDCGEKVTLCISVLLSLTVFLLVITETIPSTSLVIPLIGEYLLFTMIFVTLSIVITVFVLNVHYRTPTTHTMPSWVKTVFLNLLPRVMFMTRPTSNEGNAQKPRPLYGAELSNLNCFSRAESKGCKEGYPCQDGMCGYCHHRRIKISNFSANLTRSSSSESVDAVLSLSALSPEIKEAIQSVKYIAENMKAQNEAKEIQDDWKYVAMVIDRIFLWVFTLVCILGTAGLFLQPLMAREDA

As to `O=c1cccc2n1CC13CNCC21C3` (racemic) [CYCLOPROPYLCYFUSINE], the figures for the inhibition constant (Ki) in test [1], in test [2] and in test [3] were more than 500 nM, more than 500 nM and 144 nM, respectively.
In the case of `O=c1cccc2n1CC1CNCC21` (racemic) [CYFUSINE], the inhibitory constant (Ki) in test [1] was more than 500 nM; in test [2], more than 500 nM; in test [3], 16 nM.
Regarding `O=c1cccc2n1C[C@@H]1CNC[C@H]2C1` [CYTISINICLINE], the Ki in test [1] was 5820 nM; in test [2], 1560 nM; in test [3], 0.43 nM.
